Tests used:
A549 cells = test: Ras cellular assay, growth of cells with K-Ras G12S mutation (CellTiter-Glo); assay type: cell-based; settings: Homo sapiens, cell growth, Example 9, G12S mutation, read-out: IC50 against A549 cells
How it was run: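 Growth inhibition IC50 values come from four-parameter fits of CellTiter-Glo luminescence, read about 6 days after compound addition. G12S-mutant A549 cells (e.g. 800/well, RPMI-1640 + 10% heat-inactivated FBS) were plated in tissue-culture-treated or ultra-low-attachment 384-well format. Dosing began the following day with serial dilutions, e.g. 10 points, 3-fold.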

K-Ras WT = biological target: T1, K-Ras WT (Homo sapiens, UniProt P01116); test: HTRF resonance energy transfer assay, K-Ras WT / SOS1 interaction; assay type: biochemical; settings: HTRF assay of Example 5; read-out: IC50 against K-Ras WT
T1 construct: made in house; host or cells: E. coli BL21 (DE3)
How it was run: (§1)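 Compounds, tested in duplicate at 10 μM down to 0.01 μM, were read after about 10 min or more by HTRF as the 665/620 nm emission ratio (337 nm excitation) to derive IC50. This ratio reports FRET between an anti-GST-Eu donor on GST-K-Ras (wild-type or mutant) and an anti-6His-XL665 acceptor on His-hSOS1. Buffer: ~5 mM HEPES pH 7.4, 150 mM NaCl, 1 mM DTT, 0.05% BSA, 0.0025% Igepal.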

SW620 cells = test: Ras cellular assay, growth of cells with K-Ras G12V mutation (CellTiter-Glo); assay type: cell-based; settings: Homo sapiens, SW-620; cell growth, Example 9, G12V mutation; read-out: IC50 against SW620 cells
How it was run: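 IC50 values came from a four-parameter fit of CellTiter-Glo viability, read roughly 6 days after dosing with e.g. a 10-point threefold dilution series. G12V-mutant SW620 cells (e.g. 800 per well) had been plated the previous day in RPMI-1640/10% heat-inactivated FBS, on tissue culture-treated or ultra-low attachment plates.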

K-Ras G12V = biological target: T2, K-Ras G12V (Homo sapiens, UniProt P01116, G12V); test: HTRF resonance energy transfer assay, K-Ras G12V / SOS1 interaction; assay type: biochemical; settings: HTRF assay of Example 5; read-out: IC50 against K-Ras G12V
T2 construct: made in house; host or cells: E. coli BL21 (DE3)
How it was run: as §1

K-Ras G12S = biological target: T3, K-Ras G12S (Homo sapiens, UniProt P01116, G12S); test: HTRF resonance energy transfer assay, K-Ras G12S / SOS1 interaction; assay type: biochemical; settings: HTRF assay of Example 5; read-out: IC50 against K-Ras G12S
T3 construct: made in house; host or cells: E. coli BL21 (DE3)
How it was run: as §1

K-Ras G12D = biological target: T4, K-Ras G12D (Homo sapiens, UniProt P01116, G12D); test: HTRF resonance energy transfer assay, K-Ras G12D / SOS1 interaction; assay type: biochemical; settings: HTRF assay of Example 5; read-out: IC50 against K-Ras G12D
T4 construct: made in house; host or cells: E. coli BL21 (DE3)
How it was run: as §1

T4 sequence (P01116 1-188 isoform P01116-2 G12D): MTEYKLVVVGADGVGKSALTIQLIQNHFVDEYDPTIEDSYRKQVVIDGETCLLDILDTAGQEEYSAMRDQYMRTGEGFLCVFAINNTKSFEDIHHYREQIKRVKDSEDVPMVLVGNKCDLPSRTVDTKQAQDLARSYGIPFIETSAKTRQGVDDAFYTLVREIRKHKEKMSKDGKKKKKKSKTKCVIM
T2 sequence (P01116 1-188 isoform P01116-2 G12V): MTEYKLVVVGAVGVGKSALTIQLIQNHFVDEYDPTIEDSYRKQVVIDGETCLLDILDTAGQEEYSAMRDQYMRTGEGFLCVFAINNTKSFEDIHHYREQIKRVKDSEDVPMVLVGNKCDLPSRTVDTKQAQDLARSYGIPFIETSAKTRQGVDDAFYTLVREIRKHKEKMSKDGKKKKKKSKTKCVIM
T3 sequence (P01116 1-188 isoform P01116-2 G12S): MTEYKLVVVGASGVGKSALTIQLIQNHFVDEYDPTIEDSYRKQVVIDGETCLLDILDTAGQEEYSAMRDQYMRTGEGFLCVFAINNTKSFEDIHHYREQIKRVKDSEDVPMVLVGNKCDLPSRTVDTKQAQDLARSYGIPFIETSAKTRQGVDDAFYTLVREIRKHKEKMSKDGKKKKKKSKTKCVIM
T1 sequence (P01116 1-188 isoform P01116-2): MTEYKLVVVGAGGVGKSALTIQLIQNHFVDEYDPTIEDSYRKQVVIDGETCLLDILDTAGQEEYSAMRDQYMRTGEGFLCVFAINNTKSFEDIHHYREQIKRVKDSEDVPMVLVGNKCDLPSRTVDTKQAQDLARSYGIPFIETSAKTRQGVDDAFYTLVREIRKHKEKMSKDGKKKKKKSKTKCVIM

| SMILES | IC50 (A549 cells) | IC50 (K-Ras WT) | IC50 (SW620 cells) | IC50 (K-Ras G12V) | IC50 (K-Ras G12S) | IC50 (K-Ras G12D) |
| --- | --- | --- | --- | --- | --- | --- |
| CNC(=O)C1CCCC(N2CCOc3c(Cl)c(-c4ccc(F)c5sc(N)c(C#N)c45)c(F)c4nc(OC[C@@]56CCCN5C[C@H](F)C6)nc2c34)C1 (stereo partly drawn) [Compound 841, 3-(9-(2-amino-3-cyano-7-fluorobenzo[b]thiophen-4-yl)-8-chloro-10-fluoro-2-(((2R,7aS)-2-fluorotetrahydro-1H-pyrrolizin-7a(5H)-yl)methoxy)-5,6-dihydro-4H-[1,4]oxazepino[5,6,7-de]quinazolin-4-yl)-N-methylcyclohexane-1-carboxamide] | < 5000 nM | < 100 nM | < 5000 nM | < 100 nM | < 100 nM | < 100 nM |
| CNC(=O)C1CC(N2CCOc3c(Cl)c(-c4ccc(F)c5sc(N)c(C#N)c45)c(F)c4nc(OC[C@@]56CCCN5C[C@H](F)C6)nc2c34)C1 (stereo partly drawn) [Compound 859, 3-(9-(2-amino-3-cyano-7-fluorobenzo[b]thiophen-4-yl)-8-chloro-10-fluoro-2-(((2R,7aS)-2-fluorotetrahydro-1H-pyrrolizin-7a(5H)-yl)methoxy)-5,6-dihydro-4H-[1,4]oxazepino[5,6,7-de]quinazolin-4-yl)-N-methylcyclobutane-1-carboxamide] | < 5000 nM | < 100 nM | < 5000 nM | < 100 nM | < 100 nM | < 100 nM |
| C[C@H](Oc1nc2c3c(c(Cl)c(-c4ccc(F)c5sc(N)c(C#N)c45)c(F)c3n1)OCCN2C1CCCN(C(=O)C2CCC2)C1)[C@@H]1CCCN1C (stereo partly drawn) [Compound 862, 2-amino-4-(8-chloro-4-(1-(cyclobutanecarbonyl)piperidin-3-yl)-10-fluoro-2-((S)-1-((S)-1-methylpyrrolidin-2-yl)ethoxy)-5,6-dihydro-4H-[1,4]oxazepino[5,6,7-de]quinazolin-9-yl)-7-fluorobenzo[b]thiophene-3-carbonitrile] | < 5000 nM | < 100 nM | < 5000 nM | < 100 nM | < 100 nM | < 100 nM |
| C[C@H](Oc1nc2c3c(c(Cl)c(-c4ccc(F)c5sc(N)c(C#N)c45)c(F)c3n1)OCCN2C1CCCOC1)[C@@H]1CCCN1C (stereo partly drawn) [Compound 880, 2-amino-4-(8-chloro-10-fluoro-2-((S)-1-((S)-1-methylpyrrolidin-2-yl)ethoxy)-4-(tetrahydro-2H-pyran-3-yl)-5,6-dihydro-4H-[1,4]oxazepino[5,6,7-de]quinazolin-9-yl)-7-fluorobenzo[b]thiophene-3-carbonitrile] | < 5000 nM | < 100 nM | < 5000 nM | < 100 nM | < 100 nM | < 100 nM |
| COCC1COc2c(Cl)c(-c3ccc(F)c4sc(N)c(C#N)c34)c(F)c3nc(OC[C@@]45CCCN4C[C@H](F)C5)nc(c23)N1C (stereo partly drawn) [Compound 887, 2-amino-4-(8-chloro-10-fluoro-2-(((2R,7aS)-2-fluorotetrahydro-1H-pyrrolizin-7a(5H)-yl)methoxy)-5-(methoxymethyl)-4-methyl-5,6-dihydro-4H-[1,4]oxazepino[5,6,7-de]quinazolin-9-yl)-7-fluorobenzo[b]thiophene-3-carbonitrile] | < 5000 nM | < 100 nM | < 5000 nM | < 100 nM | < 100 nM | < 100 nM |
| CN(CCN1CCOc2c(Cl)c(-c3ccc(F)c4sc(N)c(C#N)c34)c(F)c3nc(OC[C@@]45CCCN4C[C@H](F)C5)nc1c23)C(=O)C1CCC1 [Compound 895, N-(2-(9-(2-amino-3-cyano-7-fluorobenzo[b]thiophen-4-yl)-8-chloro-10-fluoro-2-(((2R,7aS)-2-fluorotetrahydro-1H-pyrrolizin-7a(5H)-yl)methoxy)-5,6-dihydro-4H-[1,4]oxazepino[5,6,7-de]quinazolin-4-yl)ethyl)-N-methylcyclobutanecarboxamide] | < 5000 nM | < 100 nM | < 5000 nM | < 100 nM | < 100 nM | < 100 nM |
| N#Cc1c(N)sc2c(F)ccc(-c3c(Cl)c4c5c(nc(OC[C@@]67CCCN6C[C@H](F)C7)nc5c3F)N(Cc3cccnc3)CCO4)c12 [Compound 897, 2-amino-4-(8-chloro-10-fluoro-2-(((2R,7aS)-2-fluorotetrahydro-1H-pyrrolizin-7a(5H)-yl)methoxy)-4-(pyridin-3-ylmethyl)-5,6-dihydro-4H-[1,4]oxazepino[5,6,7-de]quinazolin-9-yl)-7-fluorobenzo[b]thiophene-3-carbonitrile] | < 5000 nM | < 100 nM | < 5000 nM | < 100 nM | < 100 nM | < 100 nM |
| N#Cc1c(N)sc2c(F)ccc(-c3c(Cl)c4c5c(nc(OCC67CCCN6C[C@H](F)C7)nc5c3F)N(C3CCCOCC3)CCO4)c12 (stereo partly drawn) [Compound 902, 2-amino-4-(8-chloro-10-fluoro-2-(((2R)-2-fluorotetrahydro-1H-pyrrolizin-7a(5H)-yl)methoxy)-4-(oxepan-4-yl)-5,6-dihydro-4H-[1,4]oxazepino[5,6,7-de]quinazolin-9-yl)-7-fluorobenzo[b]thiophene-3-carbonitrile] | < 5000 nM | < 100 nM | < 5000 nM | < 100 nM | < 100 nM | < 100 nM |
| Cc1cc(N)nc(-c2c(Cl)c3c4c(nc(OC[C@@]56CCCN5C[C@H](F)C6)nc4c2F)N(CC(F)F)CCO3)c1I [Compound 909, 6-(8-chloro-4-(2,2-difluoroethyl)-10-fluoro-2-(((2R,7aS)-2-fluorotetrahydro-1H-pyrrolizin-7a(5H)-yl)methoxy)-5,6-dihydro-4H-[1,4]oxazepino[5,6,7-de]quinazolin-9-yl)-5-iodo-4-methylpyridin-2-amine] | < 5000 nM | < 100 nM | < 5000 nM | < 100 nM | < 100 nM | < 100 nM |
| N#Cc1c(N)sc2c(F)ccc(-c3c(Cl)c4c5c(nc(OC[C@@]67CCCN6C[C@H](F)C7)nc5c3F)N(C3CCC(NC(=O)[C@@H]5N[C@H]5C5CC5)C3)CCO4)c12 (stereo partly drawn) [Compound 920, (2R,3S)—N-(3-(9-(2-amino-3-cyano-7-fluorobenzo[b]thiophen-4-yl)-8-chloro-10-fluoro-2-(((2R,7aS)-2-fluorotetrahydro-1H-pyrrolizin-7a(5H)-yl)methoxy)-5,6-dihydro-4H-[1,4]oxazepino[5,6,7-de]quinazolin-4-yl)cyclopentyl)-3-cyclopropylaziridine-2-carboxamide] | < 5000 nM | < 100 nM | < 5000 nM | < 100 nM | < 100 nM | < 100 nM |
| N#Cc1c(N)sc2c(F)ccc(-c3c(Cl)c4c5c(nc(OC[C@@]67CCCN6C[C@H](F)C7)nc5c3F)N(C3CCN(S(=O)(=O)C5CC5)C3)CCO4)c12 (stereo partly drawn) [Compound 922, 2-amino-4-(8-chloro-4-(1-(cyclopropylsulfonyl)pyrrolidin-3-yl)-10-fluoro-2-(((2R,7aS)-2—fluorotetrahydro-1H-pyrrolizin-7a(5H)-yl)methoxy)-5,6-dihydro-4H-[1,4]oxazepino[5,6,7-de]quinazolin-9-yl)-7-fluorobenzo[b]thiophene-3-carbonitrile] | < 5000 nM | < 100 nM | < 5000 nM | < 100 nM | < 100 nM | < 100 nM |
| C[C@H](Oc1nc2c3c(c(Cl)c(-c4ccc(F)c5sc(N)c(C#N)c45)c(F)c3n1)OCCN2C1CCOC1)[C@@H]1CCCN1C (stereo partly drawn) [Compound 924, 2-amino-4-(8-chloro-10-fluoro-2-((S)-1-((S)-1-methylpyrrolidin-2-yl)ethoxy)-4-(tetrahydrofuran-3-yl)-5,6-dihydro-4H-[1,4]oxazepino[5,6,7-de]quinazolin-9-yl)-7-fluorobenzo[b]thiophene-3-carbonitrile] | < 5000 nM | < 100 nM | < 5000 nM | < 100 nM | < 100 nM | < 100 nM |
| CC1Oc2c(Cl)c(-c3ccc(F)c4sc(N)c(C#N)c34)c(F)c3nc(OC[C@@]45CCCN4C[C@H](F)C5)nc(c23)N(C2CC2)C1C (stereo partly drawn) [Compound 929, 2-amino-4-(8-chloro-4-cyclopropyl-10-fluoro-2-(((2R,7aS)-2-fluorotetrahydro-1H-pyrrolizin-7a(5H)-yl)methoxy)-5,6-dimethyl-5,6-dihydro-4H-[1,4]oxazepino[5,6,7-de]quinazolin-9-yl)-7-fluorobenzo[b]thiophene-3-carbonitrile] | < 5000 nM | < 100 nM | < 5000 nM | < 100 nM | < 100 nM | < 100 nM |

Reference: US12209102B2, “Heterocyclic compounds and uses thereof” (Kumquat Biosciences Inc., priority 2022, dated 2025)
